System: HIV-1 strain NL4-3
Assay: p24 antigen inhibition in HIV-1 infected HUT-78 cells
Type: cell-based
Conditions: for Expected % inhibition: assuming additive effect; for Observed % inhibition: p24, day 9
Experimental: Control cells were pretreated in 3.5 ml maintenance media under the same conditions.
The tubes were centrifuged at 1200 rpm for 5 minutes to pellet the cells and each pellet was resuspended in 1 ml of stock HIV-1 strain NL4-3 (obtained from AIDS Research and Reference Reagent Program, Rockville, Md.) to obtain an MOI (multiplicity of infection) of about 0.05. The cells were incubated at 37° C. for 1 hour to allow viral adsorption to occur. […] These cells were centrifuged as above, the resulting pellets were resuspended in 1 ml of media and incubated for 1 hour at 37° C.
AZT (Burroughs Wellcome Co.) thawed from sterile stock aliquots was serially diluted in media and dispensed at a volume of 100 μl per well of microtiter plate for the cytotoxicity control wells, compound color control wells and the test wells. Treated and untreated infected and uninfected cells were dispensed at a volume of 100 μl per well. […]
The plates were incubated by 37° C. in 5% CO2.
On the 9th day, 20 μl supernatant was removed from above settled cells in the Test, Virus Control and Cell Control wells. The supernatant was assayed for the presence of p24 antigen using a Coulter Corporation p24 Antigen Test Kit in accordance with the manufacturter's directions.
% Observed Inhibition=[(VC-Test)/(VC)]×100
where VC is the mean p24 of the Virus Control wells; and
Test in the mean p24 of the Test wells.
% Expected Inhibition=X+Y(100-X)
Y is observed % inhibition of AZT.

In the case of CC(=O)N[C@H](CCCNC(=N)N)C(=O)N[C@H](CCCNC(=N)N)C(=O)N[C@H](CCCNC(=N)N)C(=O)N[C@H](CCCNC(=N)N)C(=O)N[C@H](CCCNC(=N)N)C(=O)N[C@H](CCCNC(=N)N)C(=O)N[C@H](CCCNC(=N)N)C(=O)N[C@H](CCCNC(=N)N)C(=O)N[C@H](CCCNC(=N)N)C(N)=O [4C, acetyl-[D-Arg]9 -NH2], the Expected % inhibition (AZT 0 nM, 4C 0.001 μM) is reported as -412.7%, the Observed % inhibition (AZT 0 nM, 4C 0.001 μM) is reported as -412.7% and the Expected % inhibition (AZT 0 nM, 4C 0.003 μM) is reported as -256.2%. The Observed % inhibition (AZT 0 nM, 4C 0.003 μM) was -256.2%, the Expected % inhibition (AZT 0 nM, 4C 0.01 μM) was -22.8% and the Observed % inhibition (AZT 0 nM, 4C 0.01 μM) was -22.8%. It also gave an Expected % inhibition (AZT 0 nM, 4C 0.03 μM) of 5.9%, an Observed % inhibition (AZT 0 nM, 4C 0.03 μM) of 5.9% and an Expected % inhibition (AZT 0 nM, 4C 0.1 μM) of -177.0%. For the same compound, the Observed % inhibition (AZT 0 nM, 4C 0.1 μM) was -177.0%, the Expected % inhibition (AZT 0 nM, 4C 0.3 μM) was 25.5% and the Observed % inhibition (AZT 0 nM, 4C 0.3 μM) was 25.5%. It also gave an Expected % inhibition (AZT 0 nM, 4C 10 μM) of 21.9%, an Observed % inhibition (AZT 0 nM, 4C 10 μM) of 21.9% and an Expected % inhibition (AZT 0 nM, 4C 30 μM) of 26.5%. The Observed % inhibition (AZT 0 nM, 4C 30 μM) was 26.5%.
Cc1cn([C@H]2C[C@H](N=[N+]=[N-])[C@@H](CO)O2)c(=O)[nH]c1=O [AZT, azidothymidine, reference compound] was tested, and the Expected % inhibition (AZT 10 nM, 4C 0 μM) was -406.1%, the Observed % inhibition (AZT 10 nM, 4C 0 μM) was -406.1% and the Expected % inhibition (AZT 30 nM, 4C 0 μM) was -437.4%. The Observed % inhibition (AZT 30 nM, 4C 0 μM) was -437.4%, the Expected % inhibition (AZT 100 nM, 4C 0 μM) was -14.2% and the Observed % inhibition (AZT 100 nM, 4C 0 μM) was -14.2%. It also gave an Expected % inhibition (AZT 300 nM, 4C 0 μM) of -9.8%, an Observed % inhibition (AZT 300 nM, 4C 0 μM) of -9.8% and an Expected % inhibition (AZT 1000 nM, 4C 0 μM) of -7.7%. For the same compound, the Observed % inhibition (AZT 1000 nM, 4C 0 μM) was -7.7%.

— patent US5674849A, “Anti-viral compositions” (priority 1995, dated 1997)
